This is an account of results in US12351587B2, “Bicyclic compound as RIP-1 kinase inhibitor and application thereof” (MEDSHINE DISCOVERY INC., priority 2019, dated 2025).

The structures appear in SMILES notation.

In data set [1] the test system is TNF-α/zVAD induced systemic inflammatory response syndrome (SIRS). In words: Mouse model of TNF-α induced systemic inflammatory response syndrome (SIRS). It counts as in vivo. To be noted: 10 mpk by gavage. As for the experimental part: Assay Example 4: In Vivo Efficacy Study in Mouse Model of Tumor Necrosis Factor (TNF-α) Induced Systemic Inflammatory Response Syndrome (SIRS)
Instruments and Materials • 1) Electronic balance: Brand Changzhou Tianzhiping Instrument Equipment Co., Ltd., Model JY20002 • 2) Anal thermometer. Brand PHYSITEMP, model BAT-12 Formulation of Reagents • 1) TNF-α: TNF-α was centrifuged quickly (10000 rmp, 30 s) before opening the lid. One bottle of TNF-α (1 mg) was dissolved in 1 mL of sterile water to prepare a mother liquor with a concentration of 1 mg/mL. The mother liquor was stored at 4° C. and cm be stored for one week, 1000 μL of the mother liquor was weighed and added to 5667 μL of sterile water, and then 333 mg of trehalose was added and dissolved to prepare a working solution. • 2) zVAD: […] of zVAD was weighed and added to 480 μL of DMSO, and the mixture was vortexed, sonicated, and heated at 37° C., and then 15.52 mL of physiological saline was added. A working solution with a concentration of 1.25 mu/mL was prepared. Assay Steps • 1) The mice were reared adaptively for 3 days, and then randomly grouped into cages, 5 mice in each cage. Ear tags were cut. • 2) Firstly, the mice were given the corresponding compound by gavage according to their body weight, and then injected intraperitoneally with zVAD at a dose of 250 μg per mouse. After the intraperitoneal injection of zVAD, the anal temperature was measured immediately (0 h), and the time was recorded. The time when mice were given zVAD was defined as the 0th hour (0 h). • 3) After 15 minutes, TNF-α was injected through the tail vein at a dose of 200 μL per mouse, and then the anal temperature was measured 15 minutes later (0.5 h). • 4) After 1 h, zVAD was injected intraperitoneally at a dose of 125 μg per mouse, and then the anal temperature was measured immediately (1 h). The anal temperature was measured again at 2 h, 3 h, and 4 h.

Data set [2] can be described thus: Plasma protein binding rate (PPB), human plasma. Format: in vitro ADME. The conditions noted are these: 2 μM, dialysis 4 hours 37° C. As for the experimental part: 796 μL of bank plasma from humans, SD rats and CD-1 mice (plasma purchased from BioreclamationIVT) were weighed, and the assay compound working solution or warfarin working solution was added so that the final concentration of the assay compound and warfarin in the plasma sample was 2 μM. The samples were mixed thoroughly. The final concentration of DMSO in the organic phase was 0.5%, 50 μL of plasma samples of the assay compound and warfarin were pipetted to a sample receiving plate, and the corresponding volume of the corresponding blank plasma or buffer was added immediately, so that the final volume in each sample well was 100 μL, wherein the volume ratio of plasma:dialysis buffer was 1:1. Stop solution was then added to these samples. These samples were used as T0 samples for determination of recovery and stability. The plasma samples of the assay compound and warfarin were added to the dosing end of each dialysis well, and blank dialysis buffer was added to the corresponding receiving end of the dialysis well. […] All samples were subjected to protein precipitation, and then analyzed by LC/MS/MS. Unbound rate (% Unbound), bound rate (% Bound), and recovery rate (% Recovery) of the compound were calculated using the following formulae: % Unbound=100*FC/TC, % Bond=100−% Unbound, and % Recovery=100*[…]/T0, […]

The target in another data set is T1, RIP1 (Homo sapiens, UniProt Q13546).
T1 construct: purchased Eurofins Pharma Discovery Service
T1 sequence (Q13546 1-671): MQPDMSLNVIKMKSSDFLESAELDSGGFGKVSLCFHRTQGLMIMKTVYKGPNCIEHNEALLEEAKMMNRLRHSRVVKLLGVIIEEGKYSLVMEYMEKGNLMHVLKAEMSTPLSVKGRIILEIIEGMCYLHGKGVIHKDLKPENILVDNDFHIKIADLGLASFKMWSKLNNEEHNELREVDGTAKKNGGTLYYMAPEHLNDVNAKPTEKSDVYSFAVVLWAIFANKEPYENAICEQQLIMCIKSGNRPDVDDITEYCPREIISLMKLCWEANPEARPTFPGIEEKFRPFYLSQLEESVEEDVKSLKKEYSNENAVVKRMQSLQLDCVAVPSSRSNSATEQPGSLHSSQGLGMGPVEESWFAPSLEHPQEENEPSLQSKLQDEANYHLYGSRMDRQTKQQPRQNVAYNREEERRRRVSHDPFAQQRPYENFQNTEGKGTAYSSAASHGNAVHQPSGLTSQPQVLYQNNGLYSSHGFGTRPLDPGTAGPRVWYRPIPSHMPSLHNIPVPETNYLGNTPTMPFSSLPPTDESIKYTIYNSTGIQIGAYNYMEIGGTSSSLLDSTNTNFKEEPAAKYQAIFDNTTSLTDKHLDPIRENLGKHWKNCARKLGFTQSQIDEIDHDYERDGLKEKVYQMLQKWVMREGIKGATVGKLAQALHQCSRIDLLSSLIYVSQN
The experiment in a line: Kinase selectivity assay (Eurofins, 33P radiolabeled kinase activity): RIP1. It counts as biochemical. The conditions noted are these: WX009 1 μM, ATP 10 μM, read-out: Inhibition rate. As for the experimental part:
The purpose of this assay was to detect the in vitro inhibitory activity of WX009 on a variety of kinases. The kinases used in this assay included 413 kinases, and the activity detection method was provided by Eurofins Pharma Discovery Service A method of detecting ^33P radiolabeled kinase activity was used for the assay. The concentration of WX009 was 1 μM, and the concentration of ATP was 10 μM.

The inhibition is the drop in the measured response relative to a control, in per cent.

Take `CN1C(=S)[C@@H](NC(=O)c2ncn(Cc3ccccc3)n2)COc2cccnc21` [WX009]: the “4-hour survival rate of animals” value in data set [1] is listed as 100%. In addition, the “Decrease in mouse body temperature” value came to 0.94 °C in data set [1] (1 hour), 1.2 °C in data set [1] (2 hours), 1.42 °C in data set [1] (3 hours) and 1.52 °C in data set [1] (4 hours). In data set [2], this compound came in with a PPB_Unbound of 5.7%. Besides, the inhibition at 1 µM on RIP1 was above 80%.
